According to PubChem BioAssay (NCI):
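Assay format: 96-well plates, 48-hour exposure. Here, GI50 denotes the concentration required for 50% inhibition of growth. TGI denotes the concentration required for complete inhibition of growth.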

Columns and labels:
Experiment in all cases: NCI tumour cell line growth inhibition, 48 h
RPMI-8226 leukemia = system: RPMI-8226 leukemia
MOLT-4 leukemia = system: MOLT-4 leukemia
LOX IMVI melanoma = system: LOX IMVI melanoma
OVCAR-3 ovarian = system: OVCAR-3 ovarian
OVCAR-8 ovarian = system: OVCAR-8 ovarian
HCT-15 colon = system: HCT-15 colon
HCT-116 colon = system: HCT-116 colon
TK-10 renal = system: TK-10 renal
NCI-H226 lung = system: NCI-H226 lung
SF-295 CNS = system: SF-295 CNS

Row | SMILES | TGI (RPMI-8226 leukemia) | TGI (MOLT-4 leukemia) | GI50 (LOX IMVI melanoma) | TGI (LOX IMVI melanoma) | GI50 (OVCAR-3 ovarian) | TGI (OVCAR-3 ovarian) | GI50 (OVCAR-8 ovarian) | TGI (OVCAR-8 ovarian) | GI50 (HCT-15 colon) | TGI (HCT-15 colon) | GI50 (HCT-116 colon) | TGI (HCT-116 colon) | GI50 (TK-10 renal) | TGI (TK-10 renal) | GI50 (NCI-H226 lung) | TGI (NCI-H226 lung) | GI50 (SF-295 CNS) | TGI (SF-295 CNS) | GI50 (RPMI-8226 leukemia) | GI50 (MOLT-4 leukemia)
1 | COc1cc2c(cc1OCCCCCOc1cc(-c3ccc(F)cc3)nc(C)n1)N=C[C@@H]1CCCN1C2=O | > 24 µM | > 45 µM | 11.1 µM | 31 µM | > 38.2 µM | > 58.3 µM | > 37.3 µM | > 54.7 µM | > 41.9 µM | > 77.9 µM | > 52.9 µM | 98.4 µM | > 49.9 µM | > 75.3 µM | > 100 µM | > 100 µM | > 50.9 µM | > 76.1 µM | – | –
2 | CC1(C)OC2C(CO)OC(n3ccc(=O)[nH]c3=O)C2O1 (stereo not drawn) | > 100 µM | > 100 µM | – | > 100 µM | – | > 100 µM | – | > 100 µM | – | > 100 µM | – | > 100 µM | – | > 100 µM | – | > 100 µM | – | > 100 µM | – | –
3 | O=C1C(NCCO)=C(N2CC2)C(=O)C(NCCO)=C1N1CC1 | > 84.8 µM | 58.5 µM | – | 41.3 µM | – | > 75.8 µM | – | > 85.7 µM | – | > 72.5 µM | – | 67.1 µM | – | > 100 µM | – | > 94.4 µM | – | 64.6 µM | – | –
4 | COc1ccc(/C=C/C(=O)c2ccc(Nc3ncnc4ccccc34)cc2)cc1OC | 1.66 µM | 23.5 µM | 2.81 µM | 10.4 µM | 5.1 µM | > 100 µM | 7.03 µM | 57.2 µM | 8.63 µM | > 100 µM | 0.547 µM | 16.8 µM | 8.29 µM | 62.9 µM | 3.53 µM | 31.9 µM | 6.25 µM | > 100 µM | 0.365 µM | 5.68 µM
5 | C#Cc1cccc(NC(=O)Nc2ccc(NC(=O)CCl)cc2)c1 | 28.5 µM | 33.2 µM | 1.57 µM | 3.19 µM | 12.1 µM | 25.5 µM | 22.5 µM | > 82.5 µM | 15.4 µM | 36.3 µM | 20.1 µM | > 82.5 µM | 21.8 µM | > 82.5 µM | 22.4 µM | 73.9 µM | > 82.5 µM | > 82.5 µM | 10.8 µM | 9.6 µM
6 | O=C(CNC(=O)c1cccc2ccccc12)Nc1ccccc1Oc1cccc(O)c1 | > 25 µM | > 25 µM | 15 µM | > 25 µM | 1.5 µM | > 25 µM | 11.4 µM | > 25 µM | 3.14 µM | > 25 µM | 1.36 µM | > 25 µM | > 25 µM | > 25 µM | > 25 µM | > 25 µM | 2.2 µM | > 25 µM | 8.04 µM | 4.84 µM
7 | COC(=O)Nc1ccc2ccc3c(NC(=O)OC)ccc4ccc1c2c43 (tested in a mixture with another compound) | > 50 µM | 33.7 µM | 6.67 µM | 19 µM | 10.6 µM | 45.2 µM | 14.3 µM | > 50 µM | 2.63 µM | > 50 µM | 5.43 µM | > 50 µM | 16.9 µM | > 50 µM | 9.2 µM | 31.3 µM | 5.25 µM | 30.2 µM | 8.22 µM | 7.07 µM
8 | O=C(Nc1ccc(C(F)(F)F)cc1[N+](=O)[O-])C(=O)C(C(=O)c1ccc2ccccc2c1)C1OC(=O)c2ccccc21 (stereo not drawn) | > 67.3 µM | 10.6 µM | – | 24.1 µM | – | > 51 µM | – | 19.8 µM | – | 51.4 µM | – | 15.3 µM | – | 35 µM | – | 3.29 µM | – | 24.8 µM | – | –
9 | CCCCCC(=O)N1c2ccccc2NC2=C(C(=O)CC(c3ccc(OC)c(OC)c3)C2)C1c1ccc(C(F)(F)F)cc1 (stereo not drawn) | > 100 µM | > 100 µM | > 100 µM | > 100 µM | > 100 µM | > 100 µM | > 100 µM | > 100 µM | > 100 µM | > 100 µM | 72.1 µM | > 100 µM | > 100 µM | > 100 µM | > 100 µM | > 100 µM | > 100 µM | > 100 µM | 5.98 µM | 8.9 µM
10 | N#Cc1c(NC(=O)c2cccs2)[n+]([O-])c2ccccc2[n+]1[O-] | > 100 µM | > 100 µM | > 100 µM | > 100 µM | > 100 µM | > 100 µM | 63.4 µM | > 100 µM | 64.1 µM | > 100 µM | > 100 µM | > 100 µM | > 100 µM | > 100 µM | 86.4 µM | > 100 µM | > 100 µM | > 100 µM | > 100 µM | > 100 µM
11 | O=C(Nc1ccccc1Cl)c1cnc2ccc(C3CCNCC3)cn12 | > 100 µM | > 100 µM | 2.07 µM | 17 µM | 5.6 µM | > 100 µM | 13.5 µM | > 100 µM | 11 µM | > 100 µM | 13.4 µM | > 100 µM | 1.92 µM | 12.2 µM | > 24.4 µM | > 100 µM | 24.8 µM | > 83.9 µM | > 69 µM | 55.9 µM
12 | C[C@]12CC[C@H]3[C@@H](CCC4=CC(=O)CC[C@@H]43)[C@@H]1CC[C@@H]2OC1(O)C(=O)c2ccccc2C1=O | 80 µM | 92.8 µM | – | > 100 µM | – | > 100 µM | – | > 100 µM | – | > 100 µM | – | 30.1 µM | – | > 100 µM | – | > 100 µM | – | > 100 µM | – | –
13 | CCOC(=O)C1CCC/C1=N\N=C(N)N (stereo not drawn) (tested in a mixture with another compound) | > 100 µM | > 100 µM | – | > 100 µM | – | > 100 µM | – | > 100 µM | – | > 100 µM | – | > 100 µM | – | > 100 µM | – | > 100 µM | – | > 100 µM | – | –
14 | Cc1ccc(NC(=O)c2ccnc(C(F)(F)F)c2)cc1-c1cc(OCCO)nc(N2CCOCC2)c1 | > 100 µM | > 100 µM | 0.147 µM | 4.26 µM | 2.62 µM | 12.5 µM | 4.08 µM | > 100 µM | 2.24 µM | 19.4 µM | 0.7 µM | > 100 µM | 6.66 µM | > 100 µM | 2.81 µM | 34.6 µM | 3.57 µM | 17.6 µM | 2.7 µM | 3.5 µM
15 | Cc1sc2ncnc(Sc3nc4ccccc4[nH]3)c2c1C | > 100 µM | 88.7 µM | 21.2 µM | > 100 µM | 23.3 µM | 60 µM | 20.7 µM | 62.7 µM | 28.2 µM | > 100 µM | 24 µM | > 100 µM | 28.5 µM | 62.4 µM | 27.2 µM | > 100 µM | 55.8 µM | > 100 µM | 19.5 µM | 22.2 µM
16 | Cc1cccc(C(C)(C)C)c1NC(=O)CC1C(=O)Nc2ccccc2S1=O (stereo not drawn) | > 100 µM | 69.2 µM | – | > 100 µM | – | > 100 µM | – | > 100 µM | – | > 100 µM | – | > 100 µM | – | > 100 µM | – | > 100 µM | – | > 100 µM | – | –
